Results on 25 compounds are retold here after ChEMBL document CHEMBL1765084, “Pyrimidine-2,4,6-trione derivatives and their inhibition of mutant SOD1-dependent protein aggregation. Toward a treatment for amyotrophic lateral sclerosis” (J Med Chem, 2011).

Usually EC50 stands for the concentration that produces a half-maximal response. Broadly, the Papp is the rate of passage across a membrane or cell layer, normalised by area and donor concentration. In general, efflux ratio refers to a quotient of directional permeabilities that is used to spot active efflux. What is called solubility is the concentration that dissolves in the medium under given conditions.

≈ marks a conversion by molar mass, not a printed value. A value given as a limit tells only on which side of the number the result lay.

The subject of one series is PC-12. In words: Cytoprotection against SOD1 G93A mutant induced cytotoxicity in rat PC12 cells assessed as reduction of protein aggregates by fluorescent assay. It counts as functional, cell-based.
The subject of series [1] is Caco-2. In words: Apparent Permeability across apical side to basolateral side in human Caco2 cells at 50 uM after 2 hrs. Particulars: caco-2, 2 h.
Another series has as its system Liver microsomes. In words: Half life of the compound in human liver microsomes. A general note: Liver microsomes are a subcellular fraction often used to study metabolism.
In the next series the test system is Plasma. The experiment in a line: Half life in B6SJL mouse plasma by LC-MS/MS analysis.
Series [2] in a line: Ratio of permeability from basolateral to apical side over apical to basolateral side in human Caco2 cells. Particulars: Caco-2. For orientation: Caco-2 monolayers are a common model of the intestinal barrier.
The test system of another series is Liver. In words: Half life of the compound in B6SJL mouse liver microsome. Particulars: microsomes.
A short description of series [3]: Solubility of the compound in PBS buffer after 16 hrs.
For series [4], the system named is Caco-2. The experiment in a line: Apparent Permeability across basolateral to apical side in human Caco2 cells at 50 uM after 2 hrs. As to conditions: caco-2, 2 h.

As for `O=C1CC(=O)N(C2CCc3ccccc32)C(=O)N1C1CCc2ccccc21` (configuration not stated), the EC50 with PC-12 is greater than 32000 nM.
On the same count and under the same terms, for `COc1cc(=O)n(CCc2ccccc2)c(=O)n1CCc1ccccc1` the value was greater than 32000 nM; for `O=C1CC(=O)N(CCc2ccccc2)C(=O)N1CCCc1ccccc1`, 1880 nM.
Take `O=C1CC(=O)N(CCN2CCOCC2)C(=O)N1CCc1ccc(F)cc1`: the EC50 with PC-12 is greater than 32000 nM.
`O=C1CC(=O)N(CCc2ccc(Cl)cc2)C(=O)N1CCc1ccccc1`: in the series on PC-12, the EC50 was 1190 nM.
Turning to `O=C1CC(=O)N(Cc2ccccc2)C(=O)N1CCc1ccccc1`, in the series on PC-12, the EC50 turned out to be 1900 nM.
On the same count and under the same terms, for `O=C1CC(=O)N(CCOc2ccccc2)C(=O)N1CCOc1ccccc1` the value was 3260 nM.
Regarding `O=C1CC(=O)N(CCCCc2ccccc2)C(=O)N1CCCCc1ccccc1`, the results for the Papp with Caco-2 [1] and in the series with Caco-2 [4] were 9.2 ×10⁻⁶ cm/s and 30.2 ×10⁻⁶ cm/s, respectively. Moreover, the t1/2 in the series on Liver microsomes is 15 min; with Plasma it was 21.8 min; with Liver, 11 min. For the same compound, the efflux ratio in series [2] was found to be 3.3. Moreover, the EC50 with PC-12 came out at 680 nM. Besides, in series [3], the solubility was 105 µM (≈ 41.2 µg/mL).
Consider `O=C1C(=O)N(CCc2ccccc2)C(=O)N1CCc1ccccc1`, for which, in the series on PC-12, the EC50 is greater than 32000 nM.
On the same count and under the same terms, for `O=C1CC(=O)N(CCC(c2ccccc2)c2ccccc2)C(=O)N1CCC(c1ccccc1)c1ccccc1` the value was 1390 nM.
Same read-out and setting: the same measure for `O=c1cc(Cl)n(CCc2ccccc2)c(=O)n1CCc1ccccc1`: greater than 32000 nM; for `O=C1CC(=O)N(CC(c2ccccc2)c2ccccc2)C(=O)N1CCCCc1ccccc1`: 3610 nM.
On the same count and under the same terms, the same measure for `CC(C)(C)CCN1C(=O)CC(=O)N(CCC(C)(C)C)C1=O`: 2030 nM; for `O=C1CC(=O)N(CCc2ccc(F)cc2)C(=O)N1CCc1ccc(F)cc1`: 3450 nM.
As for `O=C1CC(=O)N(CCc2cccs2)C(=O)N1CCc1ccccc1`, the EC50 in the series with PC-12 worked out at 3390 nM.
Same read-out and setting: for `O=C1CC(=O)N(CCc2ccccc2F)C(=O)N1CCc1ccccc1F` the value was 3290 nM; for `O=C1CC(=O)N(CCc2ccc(Cl)cc2)C(=O)N1CCc1ccc(Cl)cc1`, 3260 nM; for `O=C1CC(=O)N(C2CCCCC2)C(=O)N1CCc1ccccc1`, 1670 nM.
Consider `Cc1ccccc1C=C1C(=O)N(CCc2ccccc2)C(=O)N(CCc2ccccc2)C1=O`, for which the EC50 in the series on PC-12 was 2230 nM.
Take `O=C1CC(=O)N(CCCc2ccccc2)C(=O)N1CCCc1ccccc1`: the EC50 in the series on PC-12 amounted to 1320 nM.
On the same count and under the same terms, for `COc1ccc(C=C2C(=O)N(C3CCCCC3)C(=O)N(C3CCCCC3)C2=O)c(OC)c1` the value was 2580 nM; for `O=C1C(=Cc2ccc(OCc3ccccc3)cc2)C(=O)N(CCc2ccccc2)C(=O)N1CCc1ccccc1`, 2840 nM; for `O=C1CC(=O)N(CCc2ccccc2)C(=O)N1CCC1=CCCCC1`, 1740 nM.
On the same count and under the same terms, the same measure for `O=C1CC(=O)N(CCc2cccs2)C(=O)N1CCc1cccs1`: 2160 nM.
On the same count and under the same terms, the same measure for `COc1ccc(CCN2C(=O)CC(=O)N(CCc3ccccc3)C2=O)cc1`: 2940 nM.
